Columns and labels:
[1] = system: MM3MG-ESR1mut (Y537N, Y537S, D538G); test: Response of MM3MG-ESR1mut cells to standard endocrine therapies; format: cell-based, mouse; conditions: data not shown
Experimental: Using DNA deep-sequencing technology, recent studies have identified several conserved mutations to the […] of ESR1 in a significant proportion (˜30-40%) of endocrine-resistant metastatic ER+ breast cancer patients. As no established models of endocrine-resistant ER+ breast cancer existed in immunocompetent mice, an ER+ endocrine resistant breast cancer cell line model was generated that would grow in immune competent syngeneic animals. MM3MG cells were artificially transformed with wild-type or mutated human ESR1 (Y537N, Y537S, D538G).
Therefore, the established murine breast cancer cell lines, MM3MG-ESR1mut (Y537N, Y537S, D538G), simulate patients' metastatic ER+ breast cancers, that are endocrine-resistant, having ESR1 gene mutation, and behave more aggressively.

[2] = system: 4T1 tumors; conditions: combined with thermal ablative focused ultrasound; CD8 and CD4 T cell-dependent; cited from earlier work
[3] = system: pre-treated locally advanced or recurrent TNBC; test: Single arm, prospective clinical trial of intratumoral pIL-12 (TAVO) monotherapy (OMS-140); format: in vivo, human; conditions: one patient previously unresponsive to anti-PD1; after 1 cycle of IL-12 treatment and 3 months of therapy
Experimental: The clinical safety of the therapy was tested in a single arm, prospective clinical trial of intratumoral pIL-12 (TAVO) monotherapy (OMS-140) in pre-treated locally advanced or recurrent TNBC.

**Q.** For CC/C(=C(\c1ccccc1)c1ccc(OCCN(C)C)cc1)c1ccccc1 [Tamoxifen], which “sensitivity of the cells to standard endocrine therapies” value [1] is on record?
**A.** The value was “completely resistant”.

**Q.** With Nc1ccn([C@@H]2O[C@H](CO)[C@@H](O)C2(F)F)c(=O)n1 [gemcitabine] as the compound, how does the “tumor control and survival of mice” value [2] read?
**A.** The value was “enhanced tumor control and improved survival”.

**Q.** Which “clinical response of lung metastases” value [3] does the source give for nivolumab here?
**A.** The value was “profound clinical response”.

Reference: patent US20250205467A1, “SYSTEMS AND METHODS FOR THE TREATMENT OF CANCER USING ULTRASOUND” (Duke University, priority 2022, published 2025)
